Measured values: patent publication US20040171688A1, “Carboxylic acids and derivatives thereof and pharmaceutical compositions containing them” (priority 1997, published 2004)
pEC50: −log10 of the molar value.

How the values were obtained:
HNF-4α [1] = molecular target: T1, HNF-4α (Rattus norvegicus, UniProt P22449); experiment: Transfection assay: COS-7 cells cotransfected with (C3P)3-TK-CAT reporter and pSG5-HNF-4α; type: cell-based; design: expressed in transfected cells; host or cells: COS-7; conditions: for pEC50: proligands added to culture medium of COS-7 cells (FIG. 4b), read-out: EC50 of HNF-4α suppression (CAT activity); for inhibition of HNF-4α transcriptional activity, effectiveness in words: transfection assays, added to culture medium; for effect on HNF-4α dependent transcription (CAT activity): free fatty acids added to culture medium of COS-7 cells (FIG. 4a)
T1 sequence (P22449 1-464 isoform P22449-2): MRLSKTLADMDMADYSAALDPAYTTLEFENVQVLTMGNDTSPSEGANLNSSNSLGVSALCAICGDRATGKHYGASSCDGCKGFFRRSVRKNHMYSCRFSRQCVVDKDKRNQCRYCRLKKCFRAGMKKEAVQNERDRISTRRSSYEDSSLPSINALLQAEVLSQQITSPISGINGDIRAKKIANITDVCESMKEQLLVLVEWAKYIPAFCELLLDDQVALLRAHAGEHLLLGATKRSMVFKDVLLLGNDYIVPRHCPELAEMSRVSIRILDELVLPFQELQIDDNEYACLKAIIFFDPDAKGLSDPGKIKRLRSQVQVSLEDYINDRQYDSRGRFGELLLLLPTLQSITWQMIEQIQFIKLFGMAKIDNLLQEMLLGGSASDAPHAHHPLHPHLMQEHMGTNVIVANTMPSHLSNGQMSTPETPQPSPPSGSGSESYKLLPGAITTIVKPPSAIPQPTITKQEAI
Description: a. […] Fold induction of CAT activity by transfected HNF-4I is determined by evaluating CAT activity in the presence of pSG5-HNF-4I as compared with pSG5 plasmid and as function of respective fatty acids added to the culture medium as indicated. The figure summarizes 3-4 independent experiments for each fatty acid. Mean ± S.E.
b. […] Fold induction refers to CAT activity in cells incubated with 3,3,12,12-tetramethyl-tetradecanedioic acid (∘), 3,3,14,14-tetramethyl-hexadecanedioic acid (□) and 3,3,16,16-tetramethyl-octadecanedioic acid (Δ) proligands normalized to the activity in cells incubated in the absence of added proligands.
COS-7 cells cotransfected for 6 h with the (C3P)3-TK-CAT reporter plasmid (5 μg) and with either the pSG5-HNF-4α expression plasmid ([…]) or the pSG5 plasmid (0.025 μg) added by calcium phosphate precipitation were cultured in serum free medium with fatty acids (complexed with albumin in a molar ratio of 6:1) added as indicated. β-Galactosidase expression vector pRSGAL (1 μg) added to each precipitate served as an internal control for transfection. The (C3P)3-TK-CAT construct was prepared by inserting a synthetic oligonucleotide encompassing the (−87/−66) Apo CIII promoter sequence (5′-[…]-3′) flanked by HindIII restriction site into pBLCAT2^47 upstream of the −105 bp thymidine kinase promoter. The construct containing three copies of the synthetic oligonucleotide in the direct orientation was selected and confirmed by sequencing.
The intracellular effect of HNF-4α ligands on HNF-4α mediated transcription was evaluated in COS-7 cells cotransfected with an expression vector for HNF-4α and with a CAT reporter plasmid driven by a thymidine kinase promoter and enhanced by one to three C3P copies of the apo CIII gene promoter. Transfected cells were incubated in the presence of free fatty acids and xenobiotic amphipathic carboxylates representing agonistic or antagonistic HNF-4α proligands.

HNF-4α [2] = molecular target: T2, HNF-4α (Rattus norvegicus, UniProt P22449); experiment: Ligand binding assay with [3H]palmitoyl(16:0)-CoA on recombinant GST-HNF-4α(LBD) or His-HNF-4α
T2 construct: GST-HNF-4α(LBD) fusion protein consisting of amino acids 96-455 of wild type HNF-4α fused to GST; fused on or other part: Glutathione-S-transferase (GST) at the N-terminus of the LBD construct; 6-histidine tag on the full-length construct
T2 sequence (P22449 105-464 isoform P22449-2 limits assumed): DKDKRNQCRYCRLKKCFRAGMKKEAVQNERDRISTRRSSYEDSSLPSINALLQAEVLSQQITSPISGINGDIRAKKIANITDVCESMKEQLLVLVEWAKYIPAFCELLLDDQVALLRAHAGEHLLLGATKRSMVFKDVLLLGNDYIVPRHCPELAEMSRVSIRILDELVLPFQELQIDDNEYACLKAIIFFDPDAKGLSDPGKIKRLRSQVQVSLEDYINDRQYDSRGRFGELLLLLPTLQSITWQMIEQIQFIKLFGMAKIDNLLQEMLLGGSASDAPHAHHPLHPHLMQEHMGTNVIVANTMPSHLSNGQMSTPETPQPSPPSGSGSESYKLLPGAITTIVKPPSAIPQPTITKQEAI
Description: a. […] The respective recombinant proteins are incubated to equilibrium with [^3H]palmitoyl(16:0)-CoA (0.05 μCi) and with increasing nonlabeled palmitoyl(16:0)-CoA as indicated.
b. […] The respective recombinant proteins are incubated with 8 nM of [^3H]palmitoyl(16:0)-CoA (60 Ci/mmol) and with increasing nonlabeled myristoyl(14:0)-CoA as indicated. Percent bound refers to radiolabeled [^3H]palmitoyl(16:0)-CoA in the bound fraction. […] Percent bound refers to radiolabeled [^3H]palmitoyl(16:0)-CoA in the bound fraction.
Rat HNF-4α1 cDNA(pLEN4S)^1 was subcloned into the glutathione-S-transferase (GST) encoding pGEX-2T plasmid (Pharmacia) and the resultant plasmid was cleaved with smaI and AccI and religated to yield the GST-HNF-4α(LBD) fusion plasmid. […] The full length HNF-4α1 cDNA cloned into 6His-pET11d vector was expressed in E.coli BL21 (DE3)plysS.
Recombinant GST-HNF-4α(LBD) (100 pmol) or His-HNF-4α (100 pmol) were incubated for 60 min at 22° C. with [^3H]palmitoyl(16:0)-CoA (American RadiolabeledChemicals) in 100 μl of 10 mM phosphate buffer (pH 7.4). Competitor ligands or solvent carrier were added as indicated. Free and HNF-4α bound ^3[H]palmitoyl(16:0)-CoA were separated by […] and bound ligand was quantified by liquid scintillation counting. Nonspecific binding of [^3H]palmitoyl(16:0)-CoA was determined by its binding to the GST moiety or to carbonic anhydrase as nonrelevant protein.
Binding was exemplified with either the ligand binding domain of HNF-4α fused to glutathione-s-transferase (GST-HNF-4α(LBD)) or the full length HNF-4α protein tagged by 6 histidines (His-HNF-4α).

[3] = competition with 8 nM [3H]palmitoyl(16:0)-CoA, GST-HNF-4α(LBD) or His-HNF-4α, read-out: EC50 (50% specific competition)

pEC50 (HNF-4α [1]) | inhibition of HNF-4α transcriptional activity, effectiveness in words (HNF-4α [1]) | Compound | other results
3.64 |  | CC(C)(CCCCCCCCCCC(C)(C)C(=O)O)C(=O)O [2,2,13,13-tetramethyl-tetradecane dioic acid] | 
3.82 | Highly effective | CC(C)(CCCCCCCCCCCCC(C)(C)C(=O)O)C(=O)O [2,2,15,15-tetramethyl-hexadecane dioic acid] | 
3.82 | Highly effective | CC(C)(CCCCCCCCCCCCCCC(C)(C)C(=O)O)C(=O)O [2,2,17,17-tetramethyl-octadecane dioic acid] | 
< 3.52 |  | CC(C)(CCCCCCCCC(C)(C)CC(=O)O)CC(=O)O [3,3,12,12-tetramethyl-tetradecanedioic acid] | pEC50 (HNF-4α [2]; [3]): 4.40
3.81 | Highly effective | CC(C)(CCCCCCCCCCC(C)(C)CC(=O)O)CC(=O)O [3,3,14,14-tetramethyl-hexadecanedioic acid] | pEC50 (HNF-4α [2]; [3]): 5.10
3.82 | Highly effective | CC(C)(CCCCCCCCCCCCC(C)(C)CC(=O)O)CC(=O)O [3,3,16,16-tetramethyl-octadecanedioic acid] | pEC50 (HNF-4α [2]; [3]): 5.10
3.82 | Highly effective | CC(C)(CCCCCCCCC(C)(C)CCC(=O)O)CCC(=O)O [4,4,13,13-tetramethyl-hexadecane dioic acid] | 
3.82 | Highly effective | CC(C)(CCCCCCCCCCC(C)(C)CCC(=O)O)CCC(=O)O [4,4,15,15-tetramethyl-octadecane dioic acid] | 
 | effective | CC(C)(CCCCCCCCCCCCCCO)C(=O)O [16-hydroxy-2,2-dimethyl-hexadecanoic acid] | 
 | effective | CC(C)(CCCCCCCCCCCCCO)CC(=O)O [16-hydroxy-3,3-dimethyl-hexadecanoic acid] | 
 | effective | CC(C)(CCCCCCCCCCCCO)CCC(=O)O [16-hydroxy-4,4-dimethyl-hexadecanoic acid] | 
 | effective | CC(C)(CCCCCCCCCCCCCCCCO)C(=O)O [18-hydroxy-2,2-dimethyl-octadecanoic acid] | 
 | effective | CC(C)(CCCCCCCCCCCCCCO)CCC(=O)O [18-hydroxy-4,4-dimethyl-octadecanoic acid] | 

Second part, the molecule before the results:

Compound | pEC50 (HNF-4α [1]) | inhibition of HNF-4α transcriptional activity, effectiveness in words (HNF-4α [1]) | other results
O=C(O)CCCCCCCCCCCCCCCO [16-hydroxy-hexadecanoic acid] |  | effective | 
CC(C)(CCCCCCCCCCCCCCCO)CC(=O)O [18-hydroxy-3,3-dimethyl-octa-decanoic acid] |  | effective | 
O=C(O)CCCCCCCCCCCCCCCCCO [18-hydroxy-octadecanoic acid] |  | effective | 
CC(C)(Oc1ccc(CCNC(=O)c2ccc(Cl)cc2)cc1)C(=O)O [Bezafibrate, reference compound] | 3.59 |  | pEC50 (HNF-4α [2]): 4.05
CCCCCCCCCCCC(=O)SCCNC(=O)CCNC(=O)[C@H](O)C(C)(C)COP(=O)(O)OP(=O)(O)OC[C@H]1O[C@@H](n2cnc3c(N)ncnc32)[C@H](O)[C@@H]1OP(=O)(O)O [Dodecanoyl(12:0)-CoA, reference compound] |  |  | pEC50 (HNF-4α [2]; [3]): 5.64
CC(C)Cc1ccc(C(C)C(=O)O)cc1 (centres unmarked) [Ibuprofen, reference compound] |  |  | pEC50 (HNF-4α [2]; [3]): 4.40
COc1ccc2c(c1)c(CC(=O)O)c(C)n2C(=O)c1ccc(Cl)cc1 [Indomethacine, reference compound] | 3.89 |  | 
CCCCC/C=C\C/C=C\CCCCCCCC(=O)SCCNC(=O)CCNC(=O)[C@H](O)C(C)(C)COP(=O)(O)OP(=O)(O)OC[C@H]1O[C@@H](n2cnc3c(N)ncnc32)[C@H](O)[C@@H]1OP(=O)(O)O [Linoleoyl(18:2)-CoA] |  |  | pEC50 (HNF-4α [2]; [3]): 5.72
CC(C)(Oc1ccc(C2CCCc3ccccc32)cc1)C(=O)O (centres unmarked) [Nafenopin, reference compound] | 3.80 |  | pEC50 (HNF-4α [2]; [3]): 4.05
CCCCCCCC/C=C\CCCCCCCC(=O)SCCNC(=O)CCNC(=O)[C@H](O)C(C)(C)COP(=O)(O)OP(=O)(O)OC[C@H]1O[C@@H](n2cnc3c(N)ncnc32)[C@H](O)[C@@H]1OP(=O)(O)O [Oleoyl(18:1)-CoA] |  |  | pEC50 (HNF-4α [2]; [3]): 5.85
CC/C=C\C/C=C\C/C=C\C/C=C\C/C=C\CCCC(=O)O [eicosapentaenoic(20:5) acids, eicosapentaenoic(20:5) acid] |  |  | effect on HNF-4α dependent transcription (CAT activity) (HNF-4α [1]): suppressive
CC(C)(COP(=O)(O)OP(=O)(O)OC[C@H]1O[C@@H](n2cnc3c(N)ncnc32)[C@H](O)[C@@H]1OP(=O)(O)O)[C@@H](O)C(=O)NCCC(=O)NCCS [free CoA] |  |  | binding to HNF-4α (in words) (HNF-4α [2]; GST-HNF-4α(LBD) or His-HNF-4α): inactive
CCCCCCCCCCCCCCCC(=O)O [palmitic(16:0) acid] |  |  | effect on HNF-4α dependent transcription (CAT activity) (HNF-4α [1]): dose dependent activation
CC/C=C\C/C=C\C/C=C\CCCCCCCC(=O)O [α-linolenic(18:3), α-linolenic(18:3) acid] |  |  | effect on HNF-4α dependent transcription (CAT activity) (HNF-4α [1]): suppressive
